Key:
HT7^D106A [1] = target: T1, HT7^D106A (Rhodococcus sp., UniProt P59336, A155T/A167V/A224E/C128F/C176G/D106A/D78G/E160K/E257K/G292T/H272N/K175M/K195N/L47V/L88M/N227D/P291S/S2A/S58T/T264A/V172T/Y273L/Y87F); assay: Affinity of HT7 for methyl-amide fluorophores by fluorescence polarization; type: binding
T1 construct: made in house; host or cells: E. coli BL21(DE3)-pLysS
Description: Binding affinities of HT7 for methyl-amide fluorophores were determined by fluorescence polarization in a manner analogous to that of CA substrates described above with the following changes. Fluorescent substrates were used at a final concentration of 50 nM, and measurements were performed at room temperature.
(§1) Free binding energies were calculated from Kd values according to eq 4: [drawing 4] 4 where ΔG is the free binding energy, R is the universal gas constant, T is the temperature, and Kd is the dissociation constant.

SNAP^C145A = target: T2, SNAP^C145A (Homo sapiens, UniProt P16455, A127T/A154D/C145A/C150Q/C62A/G131K/G132T/G153L/K125A/K32I/L33F/M134L/N157G/Q115S/Q116H/R128A/R135S/S151G/S152D/S159E); assay: Affinity of SNAP^C145A for BG and CP fluorescent substrates by fluorescence polarization; type: binding; conditions: SNAP^C145A, fluorescence polarization, room temperature
T2 construct: made in house; host or cells: E. coli BL21(DE3)-pLysS
T2 sequence (P16455 1-182 K32I/L33F/C62A/Q115S/Q116H/K125A/A127T/R128A/G131K/G132T/M134L/R135S/C145A/C150Q/S151G/S152D/G153L/A154D/N157G/S159E limits assumed): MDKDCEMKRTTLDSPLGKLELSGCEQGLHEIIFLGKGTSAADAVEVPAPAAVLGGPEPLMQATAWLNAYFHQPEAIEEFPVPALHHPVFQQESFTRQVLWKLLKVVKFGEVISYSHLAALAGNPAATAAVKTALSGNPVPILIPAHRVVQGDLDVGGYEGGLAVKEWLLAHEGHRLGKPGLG
Description: Binding affinities of SNAP^C145A and SNAPf^C145A for BG-Alexa488, CP-Alexa488, BG-fluorescein, CP-fluorescein, BG-MAP555, BG-JF549, BG-TMR(6), BG-TMR(5), CP-TMR, BG-CPY(6), BG-CPY(5), CP-CPY, BG-SiR, CP-SiR, BG-JF646, BG-Atto565, BG-Atto590, BG-sulfo-Cy3, BG-Cy3, BG-sulfo-Cy5, and BG-Cy5 were determined by fluorescence polarization in a manner analogous to that for HT7 affinities for CA substrates described above with the following changes. Fluorescent substrates were titrated at a final concentration of 50 nM against protein concentrations ranging from 0 to 250 μM at room temperature using 0.1 g/L BSA and 1 mM DTT (SNAP-FP buffer). The FP value of each dye fully reacted with the native SNAP/SNAPf was used to improve fitting of the upper plateau of the curves by adding an extra data point at a protein concentration of 0.005 M.

[2] = test system: HOB (halo-based oligonucleotide binder, HT7 variant); assay: HOB labeling kinetics via stopped flow (fluorescence anisotropy); type: biochemical, Rhodococcus sp.
Description: (§2) Labeling kinetics of HT7 with CA-TMR, CA-JF549, CA-CPY, CA-LIVE580, and CA-JF669 and labeling kinetics of HOB with CA-TMR were measured by recording fluorescence anisotropy changes over time using a BioLogic SFM-400 stopped-flow instrument (BioLogic Science Instruments, Claix, France) in a single-mixing configuration at 37 °C. HT7 protein and substrates in activity buffer were mixed in a 1:1 stoichiometry to reach a recordable speed for these fast reactions and to increase the information content of the traces. Concentrations were varied from 0.125 to 1 μM. The anisotropy of the free substrate was measured to obtain a baseline.
Kinetic stopped-flow data were preprocessed using a custom R script.[36],[37] Recorded pretrigger time points were removed, and time points were adjusted to start at time zero. Values from replicates were averaged. The anisotropy of the free dye was calculated by averaging anisotropy values of the baseline measurements. Preprocessed data were fitted to a kinetic model (eqs 5 and 6) described by differential eqs 7–10 using the DynaFit software.[38] The anisotropy of the free dye and the mixing delay of the stopped-flow machine were set as fixed offset and delay parameters in DynaFit. […] In the case of SNAP kinetics with BG-TMR, the substrate concentration was fitted by DynaFit to rule out quantification errors of the BG-quenched fluorophore. […]

HaloTag7 (HT7) [3] = target: T3, HaloTag7 (HT7) (Rhodococcus sp., UniProt P59336, A155T/A167V/A224E/C128F/C176G/D78G/E160K/E257K/G292T/H272N/K175M/K195N/L47V/L88M/N227D/P291S/S2A/S58T/T264A/V172T/Y273L/Y87F); assay: HT7 labeling kinetics via stopped flow (fluorescence anisotropy); type: biochemical
T3 construct: made in house; host or cells: E. coli BL21(DE3)-pLysS
T3 sequence (P59336 other isoform, or with tags, fused parts or gaps with the stated changes): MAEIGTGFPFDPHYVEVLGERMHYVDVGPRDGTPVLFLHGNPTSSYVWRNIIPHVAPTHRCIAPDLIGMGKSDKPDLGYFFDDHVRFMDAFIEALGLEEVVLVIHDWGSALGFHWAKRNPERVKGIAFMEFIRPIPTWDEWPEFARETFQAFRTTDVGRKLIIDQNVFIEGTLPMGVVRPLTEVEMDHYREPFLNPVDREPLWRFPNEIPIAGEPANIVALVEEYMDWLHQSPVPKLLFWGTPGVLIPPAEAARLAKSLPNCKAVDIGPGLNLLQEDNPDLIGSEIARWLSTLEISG
Description: as §2
Kinetic stopped-flow data were preprocessed using a custom R script.[36],[37] Recorded pretrigger time points were removed, and time points were adjusted to start at time zero. Values from replicates were averaged. The anisotropy of the free dye was calculated by averaging anisotropy values of the baseline measurements. Preprocessed data were fitted to a kinetic model (eqs 5 and 6) described by differential eqs 7–10 using the DynaFit software.[38] The anisotropy of the free dye and the mixing delay of the stopped-flow machine were set as fixed offset and delay parameters in DynaFit. It was assumed that the protein substrate complex and the reacted product are contributing equally to the anisotropy signal. […] Standard deviations (normal distribution verified) and confidence intervals of fitted parameters were estimated with the Monte Carlo method[39] with standard settings (N = 1000, 5% worst fits discarded). In the case of SNAP kinetics with BG-TMR, the substrate concentration was fitted by DynaFit to rule out quantification errors of the BG-quenched fluorophore. Accurate fitting of the concentration was ensured by including conditions in which protein is limiting and no maximum FP value was reached.

HT7^D106A [4] = target: T1, HT7^D106A; assay: Affinity of HT7^D106A for CA substrates by fluorescence polarization; type: binding
Description: Binding affinities of HT7^D106A or HOB^D106A for chloroalkane (CA) substrates were determined by fluorescence polarization (FP, eq 1) measurements using a microplate reader (Spark20M, Tecan Group AG, Männedorf, Switzerland). The fluorescent substrates (10 nM) were titrated against different protein concentrations (0–250 μM) in activity buffer supplemented with 0.5 g/L bovine serum albumin (BSA). Assays were performed in black low-volume nonbinding 384-well plates (Corning Inc., Corning, NY) with a final volume of 20 μL. Obtained FP values were averaged and fitted to a single-site binding model (eq 2) to estimate Kd values for each fluorescent substrate. The FP value of each dye fully reacted with the native HT7 was used to improve fitting of the upper plateau of the curves by adding an extra data point at a protein concentration of 0.1 M. [drawing 1] 1 where FP is the fluorescence polarization, I∥ is the fluorescence intensity parallel to the excitation light polarization, I⊥ is the fluorescence intensity perpendicular to the excitation light polarization, and G is the grating factor (G = I∥/I⊥). [drawing 2] 2 where FPmin is the fluorescence polarization of the free fluorophore (lower plateau), FPmax is the maximal fluorescence polarization of fully bound fluorophore (upper plateau), Kd is the dissociation constant, and [protein] is the protein concentration.
as §1

HaloTag7 (HT7) [5] = target: T3, HaloTag7 (HT7); assay: HT7 competitive labeling kinetics against CA-Alexa488; type: biochemical; conditions: HT7, nonfluorescent substrates, competition with CA-Alexa488, 37 °C
Description: Competitive kinetics were measured by recording FP over time using a microplate reader (Spark20M, Tecan). The final concentrations of CA-Alexa488 (50 nM) and HT7 protein (200 nM) remained constant with varying concentrations of nonfluorescent substrates (0–1 μM) in activity buffer supplemented with 0.5 g/L BSA. Assays were performed in black nonbinding flat bottom 96-well plates with a final reaction volume of 200 μL. Labeling reactions were started by adding the HT7 protein to wells containing CA-Alexa488 and nonfluorescent substrates using an electronic 96-channel pipettor (Integra Bioscience Corp., Hudson, NH). The FP of free CA-Alexa488 was measured to obtain a baseline.
Data were fitted to a simplified kinetic competition model (eqs 19 and 20) described by differential eqs 21–25 using DynaFit. The dead time of the measurements and baseline FP value were put in as fixed parameters. Standard deviations (normal distribution verified) and confidence intervals of fitted parameters were estimated with the Monte Carlo method with standard settings (N = 1000, 5% worst fits discarded). [drawing 19] 19 [drawing 20] 20 where P is the SLP protein, S is the fluorescent SLP substrate, I is the nonfluorescent SLP substrate (inhibitor), PS is the protein–fluorescent substrate conjugate, and PI is the protein–nonfluorescent substrate conjugate. [drawing 21] 21 [drawing 22] 22 [drawing 23] 23 [drawing 24] 24 [drawing 25] 25

HT7^D106A [6] = target: T1, HT7^D106A; assay: Affinity of HT7^D106A for CA-Ac via FP competition assay against CA-TMR; type: binding
Description: The binding affinity of HT7^D106A for CA-Ac was determined by a fluorescence polarization competition assay against CA-TMR. Therein, 5 μM protein and 50 nM CA-TMR were titrated against CA-Ac concentrations ranging from 80 μM to 10 mM in activity buffer supplemented with 0.5 g/L BSA. Assays were performed in low-volume nonbinding black 384-well plates (Corning Inc.) with a final volume of 20 μL using a microplate reader (Spark20M, Tecan). Obtained FP values were averaged and fitted to a four-parameter logistic curve (eq 3) to estimate the I50 value. The lower plateau was fixed to the measured FP value of the free dye to improve the fit. The dissociation constant of CA-Ac was calculated as described by Rossi and Taylor.[35] [drawing 3] 3 where FPmin is the fluorescence polarization of the free fluorophore (lower plateau), FPmax is the maximal fluorescence polarization of the fully bound fluorophore (upper plateau), I50 is the half-maximal effective concentration, and [ligand] is the ligand concentration.
as §1

T1 sequence (P59336 other isoform, or with tags, fused parts or gaps with the stated changes): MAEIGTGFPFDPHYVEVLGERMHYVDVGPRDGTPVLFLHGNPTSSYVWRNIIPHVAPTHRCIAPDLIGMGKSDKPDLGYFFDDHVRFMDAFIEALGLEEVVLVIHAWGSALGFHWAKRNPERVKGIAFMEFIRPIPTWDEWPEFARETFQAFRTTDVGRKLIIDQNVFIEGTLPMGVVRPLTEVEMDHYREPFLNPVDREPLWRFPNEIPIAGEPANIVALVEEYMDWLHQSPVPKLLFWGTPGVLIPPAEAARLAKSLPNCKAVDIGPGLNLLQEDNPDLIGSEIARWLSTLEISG

CNC(=O)c1ccc(C(=O)[O-])c(-c2c3ccc(=[N+](C)C)cc-3oc3cc(N(C)C)ccc23)c1 [meAm-TMR]
free binding energy (ΔG) (HT7^D106A [1]; calculated from Kd): −16.7 kJ mol^–1 | Kd (HT7^D106A [1]; fluorescence polarization, room temperature): 1510 µM | Kd^C145A (SNAP^C145A): no affinity could be measured

CN(C)c1ccc2c(-c3cc(C(=O)NCCOCCOCCCCCCCl)ccc3C(=O)[O-])c3ccc(=[N+](C)C)cc-3oc2c1 [CA-TMR, chloroalkane-PEG-tetramethylrhodamine]
fold decrease in kapp of HOB compared to HT7 ([2]; HOB vs HT7): 2.09 ± 0.01 fold | k2 (± S.D.) ([2]; HOB, stopped flow, model 2): 5.05 (± 0.13) s-1 | Kd (HaloTag7 (HT7) [3]): 0.327 µM | k2 (± S.D.) (HaloTag7 (HT7) [3]; HT7, stopped flow, model 2): 8.06 (± 0.29) s-1 | Kd (HT7^D106A [4]): 6.24 µM | fold decrease in affinity of the 5-substituted compared to the 6-substituted rhodamine substrate (HT7^D106A [4]; HT7^D106A): 6.31 fold | free binding energy (ΔG) (HT7^D106A [4]; HT7^D106A, calculated from Kd): 30.9 kJ mol^–1

CC(=O)NCCOCCOCCCCCCCl [CA-Ac, acetylated chloroalkane]
kapp (value ± standard deviation) (HaloTag7 (HT7) [5]): (1.53 ± 0.02) × 10^3 M^–1 s^–1 | Kd (HT7^D106A [6]): 2620 µM | free binding energy (ΔG) (HT7^D106A [6]; HT7^D106A, calculated from Kd): −15.3 kJ mol^–1
